Assay results from article PMC11357992, “Non-invasive mapping of systemic neutrophil dynamics upon cardiovascular injury” (Nature Cardiovascular Research, 2023).
“And” between values parts separate entries of the source, which are not always exact repeats. Equal entries are not always repeated. Where no end group is shown, it is not given here. Side-chain parts run from the residue outwards. rhodamine‑labelled PEGylated perfluoro‑15‑crown‑5 ether nanoemulsion = not defined here; carboxyfluorescein = N-terminal fluorescence label (CF)

Tested on: bone marrow neutrophils
Assay: In vivo mNPPFC labeling of bone marrow neutrophils after Matrigel-LPS, 1H/19F MRI
Parameters: species or system mouse
Conditions: individual experiments; for total amount of 19F in the bone marrow (1H/19F MRI): mNPPFCs 1 mmol per kg BW i.v. 24 h after implantation, MRI another 24 h later; for 19F signal normalized to the number of neutrophils in the bone marrow: neutrophil number by flow cytometry directly after MRI
Procedure: To induce defined inflammatory foci, we adopted a recently developed model of localized subcutaneous inflammation. To this end, ice-cold Matrigel (Corning) was doped with LPS (1 µg µl^−1; Salmonella typhimurium, Sigma-Aldrich) and subcutaneously (s.c.) implanted into the neck of the mice. Twenty-four hours after implanting the plug, neutrophils were isolated from the blood and incubated ex vivo with ^mNPPFCs or ^ConPFCs. In separate experiments, 24 h after implantation, ^mNPPFCs or ^ConPFCs were injected intravenously, and immune cells were isolated from the blood. In further experiments, 1 d after plug injection, mice received 1 mmol per kg BW ^mNPPFCs, and, 24 h later, the bone marrow was analyzed by ^1H/^19F MRI. Thereafter, mice were killed, and neutrophils were isolated from the bone marrow for determination of cell numbers. In each case, immune cells were analyzed by flow cytometry.
Slice packages were placed in sagittal orientation to cover the complete bone marrow in the tibia and femur in both legs using the following scan details: ^1H RARE, TR = 2,000 ms, FOV = 4.00 × 2.56 cm^2, matrix = 256 × 256, ST = 1 mm, tAcq = 1 min; ^19F RARE, TR = 2,500 ms, FOV = 4.00 × 2.56 cm^2, matrix = 64 × 64, ST = 3 mm, tAcq = 10 min.

Substance: mNPPFCs: PEGylated rhodamine-labeled perfluoro-15-crown-5 ether nanoemulsion (maleimide PFCs) coupled with murine neutrophil-specific peptide mNP (carboxyfluorescein-DFYKPMPNLRITGGGC([maleimide‑PEG2000‑DSPE-rhodamine‑labelled PEGylated perfluoro‑15‑crown‑5 ether nanoemulsion]); reading uncertain; also: printed as DFYKPMPNLRIT-GGG-C)
- total amount of 19F in the bone marrow (1H/19F MRI) (Ctrl: Matrigel-PBS plug): 505497 and 895713 and 688103 and 1.24E+06 and 1.03E+06
- 19F signal normalized to the number of neutrophils in the bone marrow (Ctrl: Matrigel-PBS plug): 5335.62 and 16297.54 and 4781.15 and 12000.14 and 6924.34
- total amount of 19F in the bone marrow (1H/19F MRI) (LPS: Matrigel-LPS plug): 1632050.00 and 894870.00 and 1335810.00 and 1304290.00 and 940933.00
- 19F signal normalized to the number of neutrophils in the bone marrow (LPS: Matrigel-LPS plug): 47748.80 and 38144.50 and 144567.64 and 78101.02 and 94661.27
